From ChEMBL document CHEMBL3351430, “Inhibition studies of new ureido-substituted sulfonamides incorporating a GABA moiety against human carbonic anhydrase isoforms I-XIV” (Bioorg Med Chem, 2014) come the findings set out here.

In general, Ki refers to the dissociation constant of the complex between target and ligand, obtained from inhibition or displacement.

Among the targets are Carbonic anhydrase 3 (Homo sapiens, UniProt P07451); Carbonic anhydrase 9 (Homo sapiens, UniProt Q16790); Carbonic anhydrase 13 (Homo sapiens, UniProt Q8N1Q1).
The target in another assay is Carbonic anhydrase 6 (Homo sapiens, UniProt P23280). Put plainly: Inhibition of human recombinant carbonic anhydrase 6 pre-incubated for 15 mins by stopped-flow CO2 hydration assay.
Sequence of Carbonic anhydrase 6 (P23280 whole entry): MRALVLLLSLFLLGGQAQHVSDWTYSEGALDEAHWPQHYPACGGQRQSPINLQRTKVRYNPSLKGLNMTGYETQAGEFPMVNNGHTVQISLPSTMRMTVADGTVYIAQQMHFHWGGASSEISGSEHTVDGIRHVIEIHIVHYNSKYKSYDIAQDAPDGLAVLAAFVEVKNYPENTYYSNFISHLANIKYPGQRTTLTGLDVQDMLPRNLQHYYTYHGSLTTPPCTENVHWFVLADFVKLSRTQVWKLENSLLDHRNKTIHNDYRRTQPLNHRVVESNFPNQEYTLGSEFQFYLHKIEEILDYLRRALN

Sequence of Carbonic anhydrase 13 (Q8N1Q1 whole entry): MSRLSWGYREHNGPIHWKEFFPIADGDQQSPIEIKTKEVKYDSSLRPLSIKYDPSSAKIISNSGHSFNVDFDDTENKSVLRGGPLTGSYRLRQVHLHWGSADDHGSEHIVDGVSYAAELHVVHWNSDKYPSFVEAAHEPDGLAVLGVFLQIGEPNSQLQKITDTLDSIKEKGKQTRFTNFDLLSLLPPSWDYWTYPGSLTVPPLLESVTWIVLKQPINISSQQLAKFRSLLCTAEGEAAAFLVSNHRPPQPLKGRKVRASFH
Sequence of Carbonic anhydrase 3 (P07451 whole entry): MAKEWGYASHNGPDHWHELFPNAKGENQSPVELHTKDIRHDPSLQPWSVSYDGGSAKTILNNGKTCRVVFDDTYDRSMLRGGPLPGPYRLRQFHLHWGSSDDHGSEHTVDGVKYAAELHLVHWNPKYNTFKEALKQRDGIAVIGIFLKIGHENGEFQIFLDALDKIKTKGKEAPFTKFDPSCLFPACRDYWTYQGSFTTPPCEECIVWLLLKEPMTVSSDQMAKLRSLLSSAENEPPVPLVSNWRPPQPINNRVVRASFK
Description for Carbonic anhydrase 13: Inhibition of human recombinant carbonic anhydrase 13 pre-incubated for 15 mins by stopped-flow CO2 hydration assay
Description for Carbonic anhydrase 3: Inhibition of human recombinant carbonic anhydrase 3 pre-incubated for 15 mins by stopped-flow CO2 hydration assay
Description for Carbonic anhydrase 9: Inhibition of human recombinant carbonic anhydrase 9 pre-incubated for 15 mins by stopped-flow CO2 hydration assay

In the case of `NS(=O)(=O)c1ccc(CNC(=O)CCCNC(=O)Nc2ccccc2)cc1`, the Ki was greater than 21 µM on Carbonic anhydrase 3, 0.046 µM at Carbonic anhydrase 9, greater than 0.24 µM at Carbonic anhydrase 13 and greater than 0.12 µM on Carbonic anhydrase 6.

As to `NS(=O)(=O)c1ccc(CCNC(=O)CCCNC(=O)Nc2ccccc2)cc1`, the Ki was greater than 21 µM at Carbonic anhydrase 3, 0.0416 µM on Carbonic anhydrase 9, greater than 0.24 µM on Carbonic anhydrase 13 and greater than 0.12 µM on Carbonic anhydrase 6.

Regarding `NS(=O)(=O)c1ccc(CNC(=O)CCCNC(=O)NCc2ccccc2)cc1`, the inhibition constant (Ki) on Carbonic anhydrase 3 is greater than 21 µM; at Carbonic anhydrase 13, greater than 0.24 µM; on Carbonic anhydrase 6, greater than 0.12 µM.

With `NS(=O)(=O)c1ccc(CCNC(=O)CCCNC(=O)NCc2ccccc2)cc1`, the Ki was greater than 21 µM at Carbonic anhydrase 3, 0.106 µM at Carbonic anhydrase 9, greater than 0.24 µM on Carbonic anhydrase 13 and greater than 0.12 µM at Carbonic anhydrase 6.

In the case of `NS(=O)(=O)c1ccc(CNC(=O)CCCNC(=O)NCCc2ccccc2)cc1`, the Ki on Carbonic anhydrase 3 is greater than 21 µM; at Carbonic anhydrase 9, 0.301 µM; at Carbonic anhydrase 13, greater than 0.24 µM; on Carbonic anhydrase 6, greater than 0.12 µM.

With `NS(=O)(=O)c1ccc(CCNC(=O)CCCNC(=O)Nc2ccc([N+](=O)[O-])cc2)cc1`, the Ki on Carbonic anhydrase 3 was greater than 21 µM; at Carbonic anhydrase 9 it was 0.139 µM; on Carbonic anhydrase 13 it was greater than 0.24 µM; on Carbonic anhydrase 6, greater than 0.12 µM.
